Test results taken from patent publication US9962350B2, “Agent for improving normal development rate of fertilized eggs” (SBI Pharmaceuticals Co., Ltd., priority 2014, dated 2018).

System: fertilized eggs of the C57BL/6J lineage
Assay: In vitro culture of natural mating-derived fertilized eggs in M16 medium supplemented with ALA; embryo development
Type: cell-based, mouse
Details: 37° C.
Excerpt: The female mice used to harvest fertilized eggs were female mice of the C57BL/6J lineage (21 weeks old to 27 weeks old, body weight: 21.0 to 24.5 g). The male mice used for mating were male mice of the C57BL/6J lineage (32 to 38 weeks old, body weight: 30.0 to 35.5 g). According to a routine method of controlled ovarian hyperstimulation, 5 U (units) of equine chorionic gonadotropin (serum gonadotrophin) (manufactured by ASKA Pharmaceutical Co., Ltd.) were intraperitoneally administered to each female mouse. 45 to 48 hours later, 5 U (units) of gonadotropin (human chorionic gonadotropin) (manufactured by ASKA Pharmaceutical Co., Ltd.) were intraperitoneally administered to each female mouse. Immediately after the administration of gonadotropin, each female mouse was mated with each male mouse described above.
On the next day, the presence or absence of a milky resin-like vaginal plug was determined for the mated female mice, and the oviducts were harvested from the female mice confirmed to have the vaginal plug. The harvested oviducts were left standing in physiological saline (0.9% (w/v) NaCl) for approximately 15 minutes and then transferred into M16 medium supplemented with approximately 300 μg/mL of hyaluronidase (manufactured by Sigma-Aldrich Corp.) for cumulus cell removal treatment. The oviducts were incised, and fertilized eggs were isolated and left standing at 37° C. for 5 to 10 minutes in a CO2 incubator. Then, the fertilized eggs separated from the cumulus cells were recovered and washed with hyaluronidase-unsupplemented M16 medium to remove hyaluronidase. The resulting cumulus cell-free fertilized eggs were left standing at 37° C. in a CO2 incubator.
Aside therefrom, a drop of 100 μL of M16 medium covered with mineral oil (manufactured by Sigma-Aldrich Corp.) and supplemented with ALA hydrochloride (manufactured by SBI Pharmaceuticals Co., Ltd.) at a final concentration of 0 μM (control), 0.1 μM, 0.5 μM, or 1 μM was prepared in a 35 mm Petri dish and left standing at 37° C. in a CO2 incubator. 29 or 30 of the cumulus cell-free fertilized eggs were transferred to the resulting drop and cultured in vitro at 37° C. in a CO2 incubator.
After a lapse of 24 hours, 48 hours, 72 hours, and 96 hours from the start of the in vitro culture (0 hours) in the drop, the developmental stage of each embryo was determined by observation under a stereoscopic microscope, and the number of embryos whose development progressed normally and change in development rate were calculated. Specifically, the number of 2-cell eggs 24 hours after the start of the culture, the number of 3-cell, 4-cell, and 8-cell eggs 48 hours thereafter, the number of morulae and blastocysts 72 hours thereafter, and the number of blastocysts 96 hours thereafter were counted as embryos whose development progressed normally at each stage. The development rate with the number of fertilized eggs (0 hours) defined as 100% is shown in Table 3 and the graph of FIG. 1. For the evaluation of the development rate, the percentage of the number of embryos whose development progressed normally 24 hours, 48 hours, 72 hours, and 96 hours after the start of the culture was calculated with the number of fertilized eggs (0 hours) defined as 100%, and used as a normal development rate. Because of the natural mating, the number of recovered fertilized eggs (0 hours) includes unfertilized eggs to some extent, and there is the possibility that the content of unfertilized eggs varies accidentally among fertilized eggs (0 hours) populations distributed to the respective condition groups even if the fertilized eggs (0 hours) populations have been recovered in the same experiment. The development rate calculated with the number of 2-cell embryos 24 hours postfertilization defined as 100% was calculated in order to eliminate the influence of the content of unfertilized eggs that varies accidentally among the respective condition groups. […]

## NCC(=O)CCC(=O)O [ALA, 5-aminolevulinic acid]
0.1 μM ALA, 24 hr
  The number of developed embryos: 22
  development rate with the number of fertilized eggs (0 hr) defined as 100%: 73%
0.1 μM ALA, 48 hr
  The number of developed embryos: 19
  development rate with the number of 2-cell embryos 24 hours postfertilization defined as 100%: 86%
  development rate with the number of fertilized eggs (0 hr) defined as 100%: 63%
0.1 μM ALA, 72 hr
  The number of developed embryos: 14
  development rate with the number of 2-cell embryos 24 hours postfertilization defined as 100%: 64%
0.1 μM ALA, 96 hr
  The number of developed embryos: 7
0.5 μM ALA, 24 hr
  The number of developed embryos: 24
  development rate with the number of fertilized eggs (0 hr) defined as 100%: 83%
0.5 μM ALA, 48 hr
  The number of developed embryos: 21
  development rate with the number of 2-cell embryos 24 hours postfertilization defined as 100%: 88%
  development rate with the number of fertilized eggs (0 hr) defined as 100%: 72%
0.5 μM ALA, 72 hr
  The number of developed embryos: 14
  development rate with the number of 2-cell embryos 24 hours postfertilization defined as 100%: 58%
0.5 μM ALA, 96 hr
  The number of developed embryos: 13
1 μM ALA, 24 hr
  The number of developed embryos: 19
  development rate with the number of fertilized eggs (0 hr) defined as 100%: 66%
1 μM ALA, 48 hr
  The number of developed embryos: 19
  development rate with the number of 2-cell embryos 24 hours postfertilization defined as 100%: 100%
  development rate with the number of fertilized eggs (0 hr) defined as 100%: 66%
1 μM ALA, 72 hr
  The number of developed embryos: 15
1 μM ALA, 96 hr
  The number of developed embryos: 13
